Assay results as given in PMC10017709, “Structural basis of selective cannabinoid CB2 receptor activation” (Nature Communications, 2023).
Several values for one entry are separate records, joined by “and”; a condition that tells them apart may be missing. Equal entries are not always repeated.

Legend:
hCB2R = target: T1, hCB2R (Homo sapiens, UniProt P34972); test: [3H]RO6957022 competition association assay; format: binding
T1 construct: host or cells: CHO-K1 (CHOK1_hCB2bgal, PathHunter), membranes
T1 sequence (P34972 whole entry): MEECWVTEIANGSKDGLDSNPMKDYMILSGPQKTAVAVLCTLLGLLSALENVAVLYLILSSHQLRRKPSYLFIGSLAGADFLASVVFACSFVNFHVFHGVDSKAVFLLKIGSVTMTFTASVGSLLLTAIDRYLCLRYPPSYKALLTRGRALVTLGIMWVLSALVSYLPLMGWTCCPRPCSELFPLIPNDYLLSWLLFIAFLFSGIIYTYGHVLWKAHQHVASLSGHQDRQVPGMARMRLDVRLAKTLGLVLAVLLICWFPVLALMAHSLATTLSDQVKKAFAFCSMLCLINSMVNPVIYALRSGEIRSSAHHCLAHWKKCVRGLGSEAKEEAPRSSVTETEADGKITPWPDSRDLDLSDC

CB2R WT = CB2R WT (Homo sapiens, UniProt P34972); test: [35S]GTPγS G protein activation assay, CB2R WT; format: biochemical; conditions: for Emax: CB2R WT
Sequence of CB2R WT (P34972 whole entry): as above

CB2R-I110^3.29L = CB2R-I110^3.29L (Homo sapiens, UniProt P34972, I110L); test: [35S]GTPγS assay, CB2R I110L mutant; format: biochemical; conditions: for [35S]GTPγS binding: I1103.29L, individual replicates
Sequence of CB2R-I110^3.29L (P34972 whole entry I110L): as the sequence (P34972 whole entry) above, with I110L counted along it

CB2R-I110^3.29A = CB2R-I110^3.29A (Homo sapiens, UniProt P34972, I110A); test: [35S]GTPγS assay, CB2R I110A mutant; format: biochemical; conditions: for [35S]GTPγS binding: I1103.29A, individual replicates
Sequence of CB2R-I110^3.29A (P34972 whole entry I110A): as the sequence (P34972 whole entry) above, with I110A counted along it

CB2R-S285^7.39A = CB2R-S285^7.39A (Homo sapiens, UniProt P34972, S285A); test: [35S]GTPγS assay, CB2R S285A mutant; format: biochemical
Sequence of CB2R-S285^7.39A (P34972 whole entry S285A): as the sequence (P34972 whole entry) above, with S285A counted along it

CB2R-F117^3.36A = CB2R-F117^3.36A (Homo sapiens, UniProt P34972, F117A); test: [35S]GTPγS assay, CB2R F117A mutant; format: biochemical
Sequence of CB2R-F117^3.36A (P34972 whole entry F117A): as the sequence (P34972 whole entry) above, with F117A counted along it

CB2R-H95^2.65A = CB2R-H95^2.65A (Homo sapiens, UniProt P34972, H95A); test: [35S]GTPγS assay, CB2R H95A mutant; format: biochemical
Sequence of CB2R-H95^2.65A (P34972 whole entry H95A): as the sequence (P34972 whole entry) above, with H95A counted along it

CB2R-V261^6.51L = CB2R-V261^6.51L (Homo sapiens, UniProt P34972, V261L); test: [35S]GTPγS assay, CB2R V261L mutant; format: biochemical; conditions: for [35S]GTPγS binding: V2616.51L, individual replicates
Sequence of CB2R-V261^6.51L (P34972 whole entry V261L): as the sequence (P34972 whole entry) above, with V261L counted along it

CB2R-L185^ECL2H = CB2R-L185^ECL2H (Homo sapiens, UniProt P34972, L185H); test: [35S]GTPγS assay, CB2R L185H mutant; format: biochemical
Sequence of CB2R-L185^ECL2H (P34972 whole entry L185H): as the sequence (P34972 whole entry) above, with L185H counted along it

CB2R-L182^ECL2I = CB2R-L182^ECL2I (Homo sapiens, UniProt P34972, L182I); test: [35S]GTPγS assay, CB2R L182I mutant; format: biochemical
Sequence of CB2R-L182^ECL2I (P34972 whole entry L182I): as the sequence (P34972 whole entry) above, with L182I counted along it

CB2R-E181^ECL2D = CB2R-E181^ECL2D (Homo sapiens, UniProt P34972, E181D); test: [35S]GTPγS assay, CB2R E181D mutant; format: biochemical
Sequence of CB2R-E181^ECL2D (P34972 whole entry E181D): as the sequence (P34972 whole entry) above, with E181D counted along it

CB2R-Quadruple^TM1,7 = CB2R-Quadruple^TM1,7 (Homo sapiens, UniProt P34972, C40S/K279T/K33Q/V36I); test: [35S]GTPγS assay, CB2R quadruple mutant; format: biochemical
Sequence of CB2R-Quadruple^TM1,7 (P34972 whole entry K33Q/V36I/C40S/K279T): as the sequence (P34972 whole entry) above, with K33Q, V36I, C40S, K279T counted along it

hCB1R WT [1] = target: T2, hCB1R WT (Homo sapiens, UniProt P21554); test: [3H]CP55,940 displacement assay, CB1R WT; format: binding
T2 sequence (P21554 whole entry): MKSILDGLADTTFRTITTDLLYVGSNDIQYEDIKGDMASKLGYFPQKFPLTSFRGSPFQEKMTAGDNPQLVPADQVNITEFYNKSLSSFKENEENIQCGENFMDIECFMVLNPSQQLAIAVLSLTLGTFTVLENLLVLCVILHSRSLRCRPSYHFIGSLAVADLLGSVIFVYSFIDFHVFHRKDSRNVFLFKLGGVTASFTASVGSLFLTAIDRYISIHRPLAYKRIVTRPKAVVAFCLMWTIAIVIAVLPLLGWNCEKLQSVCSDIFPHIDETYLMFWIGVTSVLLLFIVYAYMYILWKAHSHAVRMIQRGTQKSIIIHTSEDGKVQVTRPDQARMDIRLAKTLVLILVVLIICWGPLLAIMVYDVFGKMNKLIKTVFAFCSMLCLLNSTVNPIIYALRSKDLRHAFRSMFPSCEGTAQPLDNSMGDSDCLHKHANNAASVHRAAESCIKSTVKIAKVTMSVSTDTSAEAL

CB1R-L359^6.51V = CB1R-L359^6.51V (Homo sapiens, UniProt P21554, L359V); test: [3H]CP55,940 displacement assay, CB1R L359V mutant; format: binding
Sequence of CB1R-L359^6.51V (P21554 whole entry L359V): as the sequence (P21554 whole entry) above, with L359V counted along it

CB1R-H270^ECL2L [2] = target: T3, CB1R-H270^ECL2L (Homo sapiens, UniProt P21554, H270L); test: [3H]CP55,940 displacement assay, CB1R H270L mutant; format: binding
T3 sequence (P21554 whole entry H270L): as the sequence (P21554 whole entry) above, with H270L counted along it

CB1R I267ECL2L [3] = target: T4, CB1R I267ECL2L (Homo sapiens, UniProt P21554, I267L); test: [3H]CP55,940 displacement assay, CB1R I267L mutant; format: binding
T4 sequence (P21554 whole entry I267L): as the sequence (P21554 whole entry) above, with I267L counted along it

CB1R D266ECL2E [4] = target: T5, CB1R D266ECL2E (Homo sapiens, UniProt P21554, D266E); test: [3H]CP55,940 displacement assay, CB1R D266E mutant; format: binding
T5 construct: The WT CB1R and CB2R genes were subcloned into vector pcDNA3.1; HA signal peptide (N); expressed in transfected cells; host or cells: HEK293T (transient, membrane homogenates)
T5 sequence (P21554 whole entry D266E): as the sequence (P21554 whole entry) above, with D266E counted along it

CB1R QuadrupleTM1,7 [5] = target: T6, CB1R QuadrupleTM1,7 (Homo sapiens, UniProt P21554, I119V/Q116K/S123C/T377K); test: [3H]CP55,940 displacement assay, CB1R quadruple mutant; format: binding
T6 construct: The WT CB1R and CB2R genes were subcloned into vector pcDNA3.1; HA signal peptide (N); expressed in transfected cells; host or cells: HEK293T (transient, membrane homogenates)
T6 sequence (P21554 whole entry Q116K/I119V/S123C/T377K): as the sequence (P21554 whole entry) above, with Q116K, I119V, S123C, T377K counted along it

hCB1R WT [6] = target: T2, hCB1R WT; test: [35S]GTPγS G protein activation assay, CB1R WT; format: biochemical; conditions: CB1R WT; 10 µM agonist
CB1R-H270^ECL2L [7] = target: T3, CB1R-H270^ECL2L; test: [35S]GTPγS assay, CB1R H270L mutant; format: biochemical; conditions: CB1R H270L; 10 µM agonist
CB1R I267ECL2L [8] = target: T4, CB1R I267ECL2L; test: [35S]GTPγS assay, CB1R I267L mutant; format: biochemical; conditions: CB1R I267L; 10 µM agonist
CB1R D266ECL2E [9] = target: T5, CB1R D266ECL2E; test: [35S]GTPγS assay, CB1R D266E mutant; format: biochemical; conditions: CB1R D266E; 10 µM agonist
CB1R QuadrupleTM1,7 [10] = test: [35S]GTPγS assay, CB1R quadruple mutant; format: biochemical, human; conditions: CB1R Quadruple TM1,7; 10 µM agonist

## CCCCCCC(C)(C)c1cc(OC)c([C@@H]2C=C(CO)[C@@H]3C[C@H]2C3(C)C)c(OC)c1 [HU308]
hCB2R
  ET (engagement time): 143 s and 143 ± 47.9 s
CB2R WT; maximum effect at 10 µM compared to WT (Suppl. Table 6)
  Emax: 105 ± 3%
CB2R WT; maximum effect compared to CP55,940
  Emax: 91 ± 8%
CB2R WT; WT, log [ligand] (M) -10, individual replicates
  [35S]GTPγS binding, percentage of WT: 12.69 percentage of WT and 0.12 percentage of WT and -18.99 percentage of WT and 12.94 percentage of WT and 1.90 percentage of WT and -10.30 percentage of WT and -18.00 percentage of WT and 0.09 percentage of WT and 9.81 percentage of WT and 3.21 percentage of WT
CB2R WT; log [agonist] (M) -5, individual replicates
  [35S]GTPγS binding, percentage of CP55,940: 84.84% and 81.20% and 107.18%
CB2R WT; log [agonist] (M) -6, individual replicates
  [35S]GTPγS binding, percentage of CP55,940: 42.88% and 70.07% and 64.55%
CB2R WT; log [agonist] (M) -7, individual replicates
  [35S]GTPγS binding, percentage of CP55,940: 59.80% and 30.89% and 31.02%
CB2R WT; log [agonist] (M) -8, individual replicates
  [35S]GTPγS binding, percentage of CP55,940: 26.43% and 5.08% and 10.60%
CB2R WT; log [agonist] (M) -9, individual replicates
  [35S]GTPγS binding, percentage of CP55,940: -10.38% and -5.63% and -15.53%
CB2R WT; log [agonist] (M) -10, individual replicates
  [35S]GTPγS binding, percentage of CP55,940: 1.23% and -8.38% and 14.06%
CB2R-I110^3.29L
  Emax: 122 ± 12%
CB2R-I110^3.29L; log [ligand] (M) -5
  [35S]GTPγS binding: 144.00 percentage of WT and 101.90 percentage of WT and 119.46 percentage of WT
CB2R-I110^3.29L; log [ligand] (M) -6
  [35S]GTPγS binding: 62.70 percentage of WT and 56.80 percentage of WT and 71.03 percentage of WT
CB2R-I110^3.29L; log [ligand] (M) -7
  [35S]GTPγS binding: 34.90 percentage of WT and 47.80 percentage of WT and 66.79 percentage of WT
CB2R-I110^3.29L; log [ligand] (M) -8
  [35S]GTPγS binding: 0.30 percentage of WT and -7.00 percentage of WT and 4.82 percentage of WT
CB2R-I110^3.29L; log [ligand] (M) -9
  [35S]GTPγS binding: -41.10 percentage of WT and -11.80 percentage of WT and -14.01 percentage of WT
CB2R-I110^3.29L; log [ligand] (M) -10
  [35S]GTPγS binding: -13.40 percentage of WT and -17.60 percentage of WT and 8.27 percentage of WT
CB2R-I110^3.29A
  Emax: 27 ± 10%
CB2R-I110^3.29A; log [ligand] (M) -5
  [35S]GTPγS binding: 7.61 percentage of WT and 53.50 percentage of WT and 22.50 percentage of WT and 24.96 percentage of WT
CB2R-I110^3.29A; log [ligand] (M) -6
  [35S]GTPγS binding: -2.63 percentage of WT and 15.83 percentage of WT and -2.10 percentage of WT and 11.35 percentage of WT
CB2R-I110^3.29A; log [ligand] (M) -7
  [35S]GTPγS binding: -21.19 percentage of WT and 26.20 percentage of WT and -0.60 percentage of WT and -1.65 percentage of WT
CB2R-I110^3.29A; log [ligand] (M) -8
  [35S]GTPγS binding: -20.10 percentage of WT and 21.60 percentage of WT and -13.80 percentage of WT and -17.12 percentage of WT
CB2R-I110^3.29A; log [ligand] (M) -9
  [35S]GTPγS binding: -21.53 percentage of WT and -16.40 percentage of WT and -20.30 percentage of WT and -26.64 percentage of WT
CB2R-I110^3.29A; log [ligand] (M) -10
  [35S]GTPγS binding: -16.86 percentage of WT and 2.60 percentage of WT and -15.20 percentage of WT and -22.40 percentage of WT
CB2R-S285^7.39A
  Emax: 65 ± 18%
CB2R-S285^7.39A; S285A mutant vs WT, [35S]GTPγS
  loss in potency compared to WT: 15 fold
CB2R-S285^7.39A; S285A mutant, at 10 µM compared to WT
  Emax (%): unaffected
CB2R-F117^3.36A
  Emax: 5 ± 11%
CB2R-F117^3.36A; F1173.36A, log [ligand] (M) -5, individual replicates
  [35S]GTPγS binding: -12.18 percentage of WT and 25.21 percentage of WT and 1.54 percentage of WT
CB2R-H95^2.65A
  Emax: 67 ± 16%
CB2R-V261^6.51L
  Emax: 26 ± 7%
CB2R-V261^6.51L; V261L mutant vs WT, [35S]GTPγS
  drop in potency compared to WT: more than 120 fold
CB2R-V261^6.51L; log [ligand] (M) -5
  [35S]GTPγS binding: 38.70 percentage of WT and 22.83 percentage of WT and 16.52 percentage of WT
CB2R-V261^6.51L; log [ligand] (M) -6
  [35S]GTPγS binding: 9.87 percentage of WT and 8.25 percentage of WT and -4.25 percentage of WT
CB2R-V261^6.51L; log [ligand] (M) -7
  [35S]GTPγS binding: 4.21 percentage of WT and 12.98 percentage of WT and 17.88 percentage of WT
CB2R-V261^6.51L; log [ligand] (M) -8
  [35S]GTPγS binding: 19.13 percentage of WT and 1.74 percentage of WT and -11.50 percentage of WT
CB2R-V261^6.51L; log [ligand] (M) -9
  [35S]GTPγS binding: 9.08 percentage of WT and 5.95 percentage of WT and 6.43 percentage of WT
CB2R-V261^6.51L; log [ligand] (M) -10
  [35S]GTPγS binding: 7.31 percentage of WT and 13.50 percentage of WT and 10.09 percentage of WT
CB2R-L185^ECL2H
  Emax: 146 ± 8%
CB2R-L182^ECL2I
  Emax: 10 ± 7%
CB2R-E181^ECL2D
  Emax: 32 ± 3%
CB2R-Quadruple^TM1,7
  Emax: 1 ± 9%
  activation of CB2R-Quadruple^TM1,7: completely lost their ability to activate
hCB1R WT [1]
  Displacement (%) of [3H]CP55,940: 6 ± 7%
  percentage specific [3H]CP55,940 binding: 78.66 percentage and 99.84 percentage and 102.02 percentage
CB1R-L359^6.51V
  percentage specific [3H]CP55,940 binding: 49.24 percentage and 48.12 percentage and 78.61 percentage
CB1R-H270^ECL2L [2]
  Displacement (%) of [3H]CP55,940: 46 ± 3%
  percentage specific [3H]CP55,940 binding: 48.81 percentage and 55.24 percentage and 57.51 percentage
CB1R I267ECL2L [3]
  Displacement (%) of [3H]CP55,940: -7 ± 19%
  percentage specific [3H]CP55,940 binding: 143.22 percentage and 82.61 percentage and 94.20 percentage
CB1R D266ECL2E [4]
  Displacement (%) of [3H]CP55,940: 34 ± 5%
  percentage specific [3H]CP55,940 binding: 73.61 percentage and 56.25 percentage and 67.45 percentage
CB1R QuadrupleTM1,7 [5]
  Displacement (%) of [3H]CP55,940: -13 ± 22%
  percentage specific [3H]CP55,940 binding: 134.56 percentage and 68.97 percentage and 134.64 percentage
hCB1R WT [6]
  Agonist-mediated activation: 0.8 ± 0.0 fold over its basal
CB1R-H270^ECL2L [7]
  Agonist-mediated activation: 1.2 ± 0.1 fold over its basal
CB1R I267ECL2L [8]
  Agonist-mediated activation: 0.8 ± 0.0 fold over its basal
CB1R D266ECL2E [9]
  Agonist-mediated activation: 0.8 ± 0.1 fold over its basal
CB1R QuadrupleTM1,7 [10]
  Agonist-mediated activation: 0.9 ± 0.0 fold over its basal
